# Measured values from patent publication US9115150B2, “Camptothecin compound containing stable 7-membered lactone ring, preparation method and use” (EAST CHINA NORMAL UNIVERSITY, priority 2012, dated 2015).
# Tests used:
# A549 cells = assay: Anti-tumor (cytotoxic) activity assay, SRB method, A549; assay type: cell-based; conditions: Homo sapiens, 72 h at 37° C., read-out: growth inhibition activity on A549 cells, IC50
# Experimental: (§1) All the cytotoxic activity assays of the compounds were conducted on corresponding tumor cell lines. There were 6000˜10000 tumor cells per 100 μL of culture medium, and they were placed in a 96-well plate (Falcon, Calif.). The tumor cells were divided into 3 parts, and treated with drugs having gradient concentrations. The tumor cells were cultivated for 72 h at 37° C., and assayed using SRB method. The concentration that 50% of the growth of the tumor cells growth was inhibited, i.e., IC50, was calculated from dosage-activity curves.
# HCT-116 cells = assay: Anti-tumor (cytotoxic) activity assay, SRB method, HCT-116; assay type: cell-based; conditions: Homo sapiens, HCT-116 tumor cells, 72 h at 37° C., read-out: growth inhibition activity on HCT-116 cells, IC50
# Experimental: as §1
SMILES,IC50 (A549 cells),IC50 (HCT-116 cells)
CC[C@]1(O)c2cc3n(c(=O)c2COC(=O)[C@@H]1OC(C)=O)Cc1cc2cc4c(cc2nc1-3)OCO4 [Ysb-5],1.2 ± 0.7 nM,2.1 ± 0.3 nM
"CC[C@@]1(O)C(=O)OCc2c1cc1n(c2=O)Cc2cc3cc(O)ccc3nc2-1 [Compound 10-HCPT, 10-hydroxylcamptothecin, reference compound]",33.6 ± 17.8 nM,31.2 ± 8.2 nM
"CCc1c2c(nc3ccc(O)cc13)-c1cc3c(c(=O)n1C2)COC(=O)[C@]3(O)CC [SN-38, reference compound]",30.4 ± 11.5 nM,40.8 ± 5.8 nM
CC[C@]1(O)c2cc3n(c(=O)c2COC(=O)[C@@H]1OC(C)=O)Cc1cc2cc4c(cc2nc1-3)OCCO4 [Ysb-7],4.6 ± 2.9 nM,4.9 ± 4.1 nM
"CC[C@]1(O)c2cc3n(c(=O)c2COC(=O)[C@@H]1OC(C)=O)Cc1cc2cc(OC)ccc2nc1-3 [Ysb-3, (20S,20aR)-10-methoxy-20a-acetoxyhomocamptothecin]",4.7 ± 1.1 nM,4.4 ± 1 nM
"CC[C@]1(O)c2cc3n(c(=O)c2COC(=O)[C@@H]1O)Cc1cc2ccccc2nc1-3 [Ysb-2, (20S,20aR)-20a-hydroxylhomocamptothecin]",16.8 ± 4.2 nM,49.3 ± 15 nM
CC[C@]1(O)c2cc3n(c(=O)c2COC(=O)[C@@H]1O)Cc1cc2cc4c(cc2nc1-3)OCCO4 [Ysb-8],2.9 ± 1.3 nM,3.4 ± 1.2 nM
"CC[C@@]1(O)C(=O)OCc2c1cc1n(c2=O)Cc2cc3ccccc3nc2-1 [CPT, Camptothecin]",33.8 ± 13.9 nM,22.9 ± 12 nM
"CCc1c2c(nc3ccc(O)cc13)-c1cc3c(c(=O)n1C2)COC(=O)[C@H](OC(C)=O)[C@]3(O)CC [Ysb-9, (20S,20aR)-10-hydroxyl-7-ethyl-20a-acetoxy homocamptothecin]",226 ± 15.8 nM,133 ± 18.7 nM
"CC[C@]1(O)c2cc3n(c(=O)c2COC(=O)[C@@H]1OC(C)=O)Cc1cc2ccccc2nc1-3 [Ysb-1, (20S,20aR)-20a-acetoxyhomocamptothecin]",49.2 ± 34.6 nM,14.2 ± 6.1 nM
"CC[C@]1(O)c2cc3n(c(=O)c2COC(=O)[C@@H]1O)Cc1cc2cc4c(cc2nc1-3)OCO4 [Ysb-6, (20S,20aR)-9,10-(1,3-dioxolane)-20a-hydroxylhomocamptothecin]",3.1 ± 1.6 nM,3.1 ± 0.7 nM
"CC[C@]1(O)c2cc3n(c(=O)c2COC(=O)[C@@H]1O)Cc1cc2cc(OC)ccc2nc1-3 [Ysb-4, (20S,20aR)-10-methoxy-20a-hydroxylhomocamptothecin]",4.8 ± 3.6 nM,10.6 ± 6.2 nM
"CCc1c2c(nc3ccc(O)cc13)-c1cc3c(c(=O)n1C2)COC(=O)[C@H](O)[C@]3(O)CC [Ysb-10, (20S,20aR)-10-hydroxyl-7-ethyl-20a-hydroxyl homocamptothecin]",30.3 ± 18.4 nM,366 ± 213 nM
